According to patent US20180360707A1, “COMPOSITION AND METHOD FOR INCREASE OF SURVIVAL AND STABILIZATION OF PROBIOTIC BACTERIA (PB) IN DETERGENT BASED COMPOSITIONS OF PERSONAL HYGIENE AND DOMESTIC PRODUCTS” (UAB "PROBIOSANUS", priority 2015, published 2018):

Tested on: Bacillus coagulans DSM 2311
Assay: Analysis of encapsulated and non-capsulated bacteria viability (CFU survival) in detergent solution, cosmetic compound solution or final detergent based product
Type: cell-based
Protocol: For all experimental trails probiotic strain of Bacillus coagulans DSM 2311 was used which was obtained from DSMZ. Bacterial cell suspension was prepared by cultivation of B. coagulans cells in 100 mL of liquid nutrient broth medium (Oxoid) in 1000 mL Erlenmeyer flask, for 24 hours at 37° C. while shaking at 180 rmp. Prior to encapsulation the cells were collected by centrifugation at 6000 rpm using Rotofix 32 A Hettich, then washed twice and re-suspended in sterile 0.9% NaCl solution to obtain cell concentration of 10^11 per mL.
1 g of ˜10^10 bacteria-containing lyophilized and rehydrated or fresh microcapsules was added to the fixed volume (100 mL) of either: detergent solution, cosmetic compound containing solution or final formulation detergent based product, and incubated at 37° C. temperature. The samples were harvested at certain timepoints to evaluate bacterial survival. After sample harvest the bacterial capsules were washed twice with sterile water and added to a fixed volume of sterile 2% sodium citrate solution for liberation of encapsulated bacteria. The cell suspension was diluted from 10^1 to 10^5 fold and 100 μL of solution was plated on Petri dishes filled with Nutrient Broth solid medium. The survival rates [%] of capsulated and non-capsulated bacteria was estimated by comparing CFU averages at each sample point, from 3 replicas. See formulas:
[formula] • N—estimated CFU; • CFU—sum of calculated colonies from each evaluated Petri plates • Vp—plated volume • Vfd—final dilution volume • D—dilution fold • Survival of bacteria [%]=N(1+n)/N1*100 • N1—bacterial CFU's from first timepoint sample • N(1+n)—bacterial CFU's from following timepoint sample
1 g of 10^10 bacteria-containing rehydrated or fresh microcapsules was added to the fixed volume (100 mL) of detergent solution and incubated for 120 hours at 37° C. temperature. A parallel experiment was performed with non-capsulated cells (control group). After the sample harvest the bacterial capsules were washed twice with sterile water and added to the fixed volume of sterile 2% sodium citrate solution for liberation of encapsulated bacteria. The cell suspension was diluted 10^1-10^5 fold and 100 μL plated on replicates of Nutrient Broth solid medium. The survival rates [%] of capsulated and non-capsulated bacteria were estimated as described in the section—Analysis of encapsulated bacteria viability in detergent based solution, by comparing CFU averages at each sample time point from 3 replicas.
1 g of 10^10 bacteria containing lyophilized-rehydrated microcapsules was added to the fixed volume (100 mL) of solutions of: Grapefruit seed extract d-limonene, or Azadirachta indica extract and incubated for 120 hours at 37° C. temperature. A parallel experiment was performed with non-capsulated cells. After sample harvest the bacterial capsules were washed twice with sterile water and added to the fixed volume of sterile 2% sodium citrate solution for liberation of encapsulated bacteria. The cell suspension was diluted 10^1-10^5 fold and 100 μL of solution was plated on replicates of Nutrient Broth solid medium. The survival rates [%] of capsulated and non-capsulated bacteria were estimated as described in the section—Analysis of encapsulated bacteria viability in detergent based solution, by comparing CFU averages at each sample point, from 3 replicas. […]

Q: Which non-capsulated bacteria inactivated (6.7% sodium lauryl sulphate (SLS) solution, 37° C.) does the source give for `CCCCCCCCCCCCOS(=O)(=O)[O-].[Na+]` [SLS, sodium lauryl sulphate] here?
A: The non-capsulated bacteria inactivated was 80%.

Q: With `C=C(C)[C@H]1CC=C(C)CC1` [terpenes, d-limonene] as the molecule, how does the “non-capsulated B. Coagulans bacteria inactivated” value (0.7% terpene d-limonene solution, in 2 hours) read?
A: Its value is 100%.

Q: How did the non-capsulated bacteria inactivated (3% cocamide diethanolamine solution, 37° C.) turn out when cocamide diethanolamine was run?
A: Its non-capsulated bacteria inactivated is 75%.

Q: How did the “non-capsulated bacteria (starting titers) inactivated” value (cocoamide propyl betaine (CAPB) 6.7% solution, after 0.5 h, 37° C.) turn out when cocoamide propyl betaine [CAPB] was run?
A: The value was 97%.

Q: Which non-capsulated bacteria inactivated (7% cocoglycozide solution, 37° C.) does the source give for cocoglycozide here?
A: The non-capsulated bacteria inactivated was 75%.
